The source made the active and inactive calls. No cut-off for these calls is given here.
Assays:
Huh-7 [1] = experiment: Downregulation of c-Myc expression in human Huh-7 cells by Western blot analysis; type: functional, cell-based
Huh-7 [2] = experiment: Induction of cell cycle arrest in human Huh-7 cells assessed as decrease in accumulation of cells at G2/M phase at 2 uM by flow cytometry analysis; type: functional, cell-based
[3] = target: T1, Lysine-specific demethylase 4D (Homo sapiens, UniProt Q6B0I6); experiment: Inhibition of KDM4D (unknown origin) incubated for 60 mins by microplate reader analysis
T1 sequence (Q6B0I6 whole entry): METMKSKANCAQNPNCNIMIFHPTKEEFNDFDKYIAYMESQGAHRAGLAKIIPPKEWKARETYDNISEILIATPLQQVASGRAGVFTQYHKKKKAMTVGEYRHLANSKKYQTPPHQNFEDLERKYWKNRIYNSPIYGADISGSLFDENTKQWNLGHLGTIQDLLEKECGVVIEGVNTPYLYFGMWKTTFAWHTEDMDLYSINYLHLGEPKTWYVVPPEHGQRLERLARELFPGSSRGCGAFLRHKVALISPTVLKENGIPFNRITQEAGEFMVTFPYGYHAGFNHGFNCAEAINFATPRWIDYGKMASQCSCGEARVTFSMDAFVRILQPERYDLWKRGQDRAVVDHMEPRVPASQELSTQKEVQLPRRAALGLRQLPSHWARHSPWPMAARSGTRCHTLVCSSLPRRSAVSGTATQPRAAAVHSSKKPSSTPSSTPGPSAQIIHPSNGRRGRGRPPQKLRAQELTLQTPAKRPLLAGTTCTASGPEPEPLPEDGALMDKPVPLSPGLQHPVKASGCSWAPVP

Huh-7 [4] = experiment: Inhibition of cell migration in human Huh-7 cells at 2 uM measured for 24 hrs by wound healing assay; type: functional, cell-based
Huh-7 [5] = conditions: Homo sapiens, Huh-7, 48 h
Huh-7 [6] = experiment: cells; conditions: Homo sapiens, Huh-7, 48 h, read-out: INH
Description: Anticancer activity against human Huh-7 cells assessed as inhibition of cell viability at 8 uM incubated for 48 hrs by CCK-8 assay (Rvb = 0 +/- 0.88 %)

Huh-7 [7] = experiment: Inhibition of colony formation in human Huh-7 cells at 2 uM incubated for 72 hrs followed by compound washout and measured after 10 days by crystal violet staining based assay; type: functional, cell-based
Huh-7 [8] = experiment: Induction of cell cycle arrest in human Huh-7 cells assessed as increase in accumulation of cells at G1 phase at 2 uM by flow cytometry analysis; type: functional, cell-based
Huh-7 [9] = experiment: Induction of cell cycle arrest in human Huh-7 cells assessed as decrease in accumulation of cells at S phase at 2 uM by flow cytometry analysis; type: functional, cell-based
Huh-7 [10] = experiment: Downregulation of CyclinD1 expression in human Huh-7 cells by Western blot analysis; type: functional, cell-based

Row | Compound | IC50 [3] | inhibition at 8 µM (Huh-7 [6]) | further results
1 | Cc1ccc(-c2nc3ccc(NC(=S)N4CCCCCC4)cc3nc2-c2ccc(C)o2)o1 | 0.62 µM | 55.5% | Activity (Huh-7 [1]): Active; Activity (Huh-7 [2]): Active; inhibition (Huh-7 [4]): Active; IC50 (Huh-7 [5]): 5.23 µM; inhibition (Huh-7 [7]): Active; Activity (Huh-7 [8]): Active; Activity (Huh-7 [9]): Active; Activity (Huh-7 [10]): Active
2 | Fc1ccc(CNC(=S)Nc2ccc3nc(-c4cccs4)c(-c4cccs4)nc3c2)cc1 | > 50 µM | 41.8% | 
3 | S=C(NCc1ccncc1)Nc1ccc2nc(-c3ccccn3)c(-c3ccccn3)nc2c1 | > 50 µM | 39.8% | 
4 | S=C(Nc1ccc2nc(-c3ccco3)c(-c3ccco3)nc2c1)N1CCCCCC1 | 2.31 µM | 33.3% | 
5 | S=C(Nc1ccc2nc(-c3ccco3)c(-c3ccco3)nc2c1)Nc1ccccn1 | 2.46 µM | 16% | 
6 | O=[N+]([O-])c1ccc(CNC(=S)Nc2ccc3nc(-c4ccco4)c(-c4ccco4)nc3c2)cc1 | 3.66 µM | 19.4% | 
7 | Fc1ccc(CNC(=S)Nc2ccc3nc(-c4ccco4)c(-c4ccco4)nc3c2)cc1 | 3.23 µM | 33% | 
8 | O=C(Nc1ccccc1)C(=S)Nc1ccc2nc(-c3ccco3)c(-c3ccco3)nc2c1 | 7.16 µM | 19.7% | 
9 | O=C(Nc1ccccc1)Nc1ccc2nc(-c3ccco3)c(-c3ccco3)nc2c1 | 3.7 µM | 24.2% | 
10 | CCCCNC(=S)Nc1ccc2nc(-c3ccco3)c(-c3ccco3)nc2c1 | 2.63 µM | 30.7% | 
11 | O=C(Nc1ccc2nc(-c3ccco3)c(-c3ccco3)nc2c1)N1CCCCCC1 | 2.95 µM | 32.8% | 
12 | S=C(Nc1ccc2nc(-c3ccc(Br)s3)c(-c3ccc(Br)s3)nc2c1)N1CCCCCC1 | > 50 µM | 41.5% | 
13 | O=C1CCCN(C(=S)Nc2ccc3nc(-c4ccco4)c(-c4ccco4)nc3c2)CC1 | 3.97 µM | 29.5% | 
14 | COc1ccc(CNC(=S)Nc2ccc3nc(-c4ccco4)c(-c4ccco4)nc3c2)cc1 | 3.12 µM | 32.9% | 
15 | S=C(Nc1ccc2nc(-c3ccco3)c(-c3ccco3)nc2c1)c1ccccc1 | 25.6 µM | 33.8% | 
16 | Fc1ccc(CNC(=S)Nc2ccc3nc(-c4ccccn4)c(-c4ccccn4)nc3c2)cc1 | > 50 µM | 37.8% | 
17 | S=C(Nc1ccc2nc(-c3ccccn3)c(-c3ccccn3)nc2c1)N1CCCCCC1 | > 50 µM | 39.1% | 
18 | S=C(NCc1ccccn1)Nc1ccc2nc(-c3ccc(Br)o3)c(-c3ccc(Br)o3)nc2c1 | 13 µM | 38.1% | 
19 | S=C(Nc1ccccc1)Nc1ccc2nc(-c3ccco3)c(-c3ccco3)nc2c1 | 4.81 µM | 25.6% | 
20 | COC(=O)CCCNC(=S)Nc1ccc2nc(-c3ccco3)c(-c3ccco3)nc2c1 | 2.41 µM | 20.2% | 
21 | S=C(Nc1ccc2nc(-c3ccc(Br)o3)c(-c3ccc(Br)o3)nc2c1)N1CCCCCC1 | 5.98 µM | 25.8% | 
22 | S=C(Nc1ccc2nc(-c3ccco3)c(-c3ccco3)nc2c1)N1CCOCC1 | 3.8 µM | 30% | 
23 | S=C(NCc1ccccn1)Nc1ccc2nc(-c3ccccn3)c(-c3ccccn3)nc2c1 | > 50 µM | 30.3% | 
24 | Fc1ccc(CNC(=S)Nc2ccc3nc(-c4ccc(Br)s4)c(-c4ccc(Br)s4)nc3c2)cc1 | > 50 µM | 28.5% | 

Reference: ChEMBL document CHEMBL6083265, “Design, synthesis and biological evaluation of 4,6-diarylquinoxaline-based KDM4D inhibitors” (Bioorg Med Chem, 2024)
